Measurements as given in US8410151B2, “Aminomethyl benzene derivatives” (Actelion Pharmaceuticals Ltd, priority 2009, dated 2013).

Biological target: recombinant human S1P1 receptor (Homo sapiens, UniProt P21453)
Test: GTPγS assay to determine EC50 values
Format: biochemical
Conditions: 35S-GTPγS binding, CHO membranes, human S1P1
Experimental: GTPγS binding assays are performed in 96 well microtiter plates (Nunc, 442587) in a final volume of 200 μl, using membrane preparations of CHO cells expressing recombinant human S1P1 receptor. Assay conditions are 20 mM Hepes (Fluka, 54461), 100 mM NaCl (Fluka, 71378), 5 mM MgCl2 (Fluka, 63064), 0.1% BSA (Calbiochem, 126609), 1 μM GDP (Sigma, G-7127), 2.5% DMSO (Fluka, 41644), 50 pM ^355-GTPγS (Amersham Biosciences, SJ1320). The pH is 7.4. Test compounds are dissolved and diluted in 100% DMSO and pre-incubated at room temperature for 30 min in 150 μl of the above assay buffer, in the absence of ^355-GTPγS. After addition of 50 μl of ^355-GTPγS, the assay is incubated for 1 h at rt. The assay is terminated by transfer of the reaction mixture to a Multiscreen plate (Millipore, MAHFC1H60) using a cell harvester from Packard Biosciences, and the plates are washed with ice-cold 10 mM Na2HPO4/NaH2PO4 (70%/30%), dried, sealed at the bottom and, after addition of 25 μl MicroScint20 (Packard Biosciences, order #6013621), sealed on the top. Membrane-bound ^35S-GTPγS is measured with a TopCount from Packard Biosciences.
EC50 is the concentration of agonist inducing 50% of the maximal specific ^35S-GTPγS binding. Specific binding is determined by subtracting non-specific binding from maximal binding. Maximal binding is the amount of cpm bound to the Multiscreen plate in the presence of 10 μM of S1P. Non-specific binding is the amount of binding in the absence of an agonist in the assay.

Chain of recombinant human S1P1 receptor (P21453 whole entry): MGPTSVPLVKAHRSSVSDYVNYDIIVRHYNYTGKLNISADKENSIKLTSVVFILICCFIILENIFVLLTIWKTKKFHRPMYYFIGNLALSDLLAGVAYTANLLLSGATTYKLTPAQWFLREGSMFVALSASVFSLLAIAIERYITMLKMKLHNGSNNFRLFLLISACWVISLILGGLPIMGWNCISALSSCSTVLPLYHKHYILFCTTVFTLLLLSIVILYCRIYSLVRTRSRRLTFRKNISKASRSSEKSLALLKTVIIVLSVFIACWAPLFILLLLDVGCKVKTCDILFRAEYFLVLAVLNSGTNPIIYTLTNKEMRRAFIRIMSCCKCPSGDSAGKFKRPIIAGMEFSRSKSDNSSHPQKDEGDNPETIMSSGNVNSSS

Row | EC50 [nM] | Molecule
1 | > 10000 | CNCc1cccc(-c2nc(-c3cc(C)c(OCC(O)CNC(=O)CO)c(C)c3)no2)c1 (racemic) [Example 1]

Same assay, conditions: 35S-GTPγS binding, membrane preparations of CHO cells expressing recombinant human S1P1 receptor

Row | Molecule | EC50 [nM]
2 | CCc1ccc(-c2nc(-c3cc(C)c(OC[C@@H](O)CNC(=O)CO)c(CC)c3)no2)cc1CN(C)C [Example 89] | 22
3 | CCc1cc(-c2noc(-c3cc(CN4CCCC4)cc(C(C)C)c3)n2)cc(C)c1OC[C@@H](O)CNC(=O)CO [Example 75, N—((S)-3-{2-ethyl-4-[5-(3-isopropyl-5-pyrrolidin-1-ylmethyl-phenyl)-[1,2,4]oxadiazol-3-yl]-6-methyl-phenoxy}-2-hydroxy-propyl)-2-hydroxy-acetamide] | 7.2
4 | CCc1cc(-c2nc(-c3cc(C)c(OC[C@@H](O)CNC(=O)CO)c(CC)c3)no2)ccc1CN1CCCC1 [Example 105, N—((S)-3-{2-ethyl-4-[5-(3-ethyl-4-pyrrolidin-1-ylmethyl-phenyl)-[1,2,4]oxadiazol-3-yl]-6-methyl-phenoxy}-2-hydroxy-propyl)-2-hydroxy-acetamide] | 8
5 | CCCCN(CC)Cc1cc(C)cc(-c2nc(-c3cc(C)c(OC[C@@H](O)CNC(=O)CO)c(CC)c3)no2)c1 [Example 21, N—{(S)-3-[4-(5-{3-[(butyl-ethyl-amino)-methyl]-5-methyl-phenyl}-[1,2,4]oxadiazol-3-yl)-2-ethyl-6-methyl-phenoxy]-2-hydroxy-propyl}-2-hydroxy-acetamide] | 5.6
6 | CCc1cc(CN(C)CC)cc(-c2nc(-c3cc(C)c(OC[C@@H](O)CNC(=O)CO)c(CC)c3)no2)c1 [Example 50, N—{(S)-3-[2-ethyl-4-(5-{3-ethyl-5-[(ethyl-methyl-amino)-methyl]-phenyl}-[1,2,4]oxadiazol-3-yl)-6-methyl-phenoxy]-2-hydroxy-propyl}-2-hydroxy-acetamide] | 5.3
7 | CCc1cc(CN(C)C)cc(-c2nc(-c3cc(C)c(OC[C@@H](O)CNC(=O)CO)c(CC)c3)no2)c1 [Example 49, N—((S)-3-{4-[5-(3-dimethylaminomethyl-5-ethyl-phenyl)-[1,2,4]oxadiazol-3-yl]-2-ethyl-6-methyl-phenoxy}-2-hydroxy-propyl)-2-hydroxy-acetamide] | 3.7
8 | CCCCN(C)Cc1ccc(-c2nc(-c3cc(C)c(OC[C@@H](O)CNC(=O)CO)c(CC)c3)no2)cc1C [Example 42, N—{(S)-3-[4-(5-{4-[(butyl-methyl-amino)-methyl]-3-methyl-phenyl}-[1,2,4]oxadiazol-3-yl)-2-ethyl-6-methyl-phenoxy]-2-hydroxy-propyl}-2-hydroxy-acetamide] | 5.8
9 | CCCc1cc(CNCC(C)C)cc(-c2nc(-c3cc(C)c(OC[C@@H](O)CNC(=O)CO)c(CC)c3)no2)c1 [Example 58, N—[(S)-3-(2-ethyl-4-{5-[3-(isobutylamino-methyl)-5-propyl-phenyl]-[1,2,4]oxadiazol-3-yl}-6-methyl-phenoxy)-2-hydroxy-propyl]-2-hydroxy-acetamide] | 8.4
10 | N-(3-{4-[5-(4-dimethylaminomethyl-3-methyl-phenyl)-[1,2,4]oxadiazol-3-yl]-2,6-dimethyl-phenoxy}-2-hydroxy-propyl)-2-hydroxy-acetamide [Example 127] | 8.5

Other lines, results leading:

Row | EC50 [nM] | Molecule
11 | 3.6 | CCCc1cc(CN(C)CCC)cc(-c2nc(-c3cc(C)c(OC[C@@H](O)CNC(=O)CO)c(CC)c3)no2)c1 [Example 61, N—{(S)-3-[2-ethyl-6-methyl-4-(5-{3-[(methyl-propyl-amino)-methyl]-5-propyl-phenyl}-[1,2,4]oxadiazol-3-yl)-phenoxy]-2-hydroxy-propyl}-2-hydroxy-acetamide]
12 | 3.1 | CCCCN(C)Cc1cc(CCC)cc(-c2nc(-c3cc(C)c(OC[C@@H](O)CNC(=O)CO)c(CC)c3)no2)c1 [Example 62, N—{(S)-3-[4-(5-{3-[(butyl-methyl-amino)-methyl]-5-propyl-phenyl}-[1,2,4]oxadiazol-3-yl)-2-ethyl-6-methyl-phenoxy]-2-hydroxy-propyl}-2-hydroxy-acetamide]
13 | 2.4 | CCCN(C)Cc1cc(CC)cc(-c2nc(-c3cc(C)c(OC[C@@H](O)CNC(=O)CO)c(CC)c3)no2)c1 [Example 51, N—{(S)-3-[2-ethyl-4-(5-{3-ethyl-5-[(methyl-propyl-amino)-methyl]-phenyl}-[1,2,4]oxadiazol-3-yl)-6-methyl-phenoxy]-2-hydroxy-propyl}-2-hydroxy-acetamide]
14 | 2.3 | CCCCN(C)Cc1cc(-c2nc(-c3cc(C)c(OC[C@@H](O)CNC(=O)CO)c(CC)c3)no2)cc(C(C)C)c1 [Example 72, N—{(S)-3-[4-(5-{3-[(butyl-methyl-amino)-methyl]-5-isopropyl-phenyl}-[1,2,4]oxadiazol-3-yl)-2-ethyl-6-methyl-phenoxy]-2-hydroxy-propyl}-2-hydroxy-acetamide]
15 | 2.2 | CCc1cc(-c2noc(-c3cc(C)cc(CN(C)CC(C)C)c3)n2)cc(C)c1OC[C@@H](O)CNC(=O)CO [Example 19, N—{(S)-3-[2-ethyl-4-(5-{3-[(isobutyl-methyl-amino)-methyl]-5-methyl-phenyl}-[1,2,4]oxadiazol-3-yl)-6-methyl-phenoxy]-2-hydroxy-propyl}-2-hydroxy-acetamide]
16 | 2.1 | CCCN(C)Cc1cc(-c2nc(-c3cc(C)c(OC[C@@H](O)CNC(=O)CO)c(CC)c3)no2)cc(C(C)C)c1 [Example 71, N—{(S)-3-[2-ethyl-4-(5-{3-isopropyl-5-[(methyl-propyl-amino)-methyl]-phenyl}-[1,2,4]oxadiazol-3-yl)-6-methyl-phenoxy]-2-hydroxy-propyl}-2-hydroxy-acetamide]
17 | 2 | CCCCN(C)Cc1cc(CC)cc(-c2nc(-c3cc(C)c(OC[C@@H](O)CNC(=O)CO)c(CC)c3)no2)c1 [Example 52, N—{(S)-3-[4-(5-{3-[(butyl-methyl-amino)-methyl]-5-ethyl-phenyl}-[1,2,4]oxadiazol-3-yl)-2-ethyl-6-methyl-phenoxy]-2-hydroxy-propyl}-2-hydroxy-acetamide]
18 | 2 | CCN(C)Cc1cc(C)cc(-c2nc(-c3cc(C)c(OC[C@@H](O)CO)c(Cl)c3)no2)c1 [Example 144, (S)-3-[2-chloro-4-(5-{3-[(ethyl-methyl-amino)-methyl]-5-methyl-phenyl}-[1,2,4]oxadiazol-3-yl)-6-methyl-phenoxy]-propane-1,2-diol]
19 | 2 | CCc1cc(-c2noc(-c3cc(CN(C)CC(C)C)cc(C(C)C)c3)n2)cc(C)c1OC[C@@H](O)CNC(=O)CO [Example 73, N—{(S)-3-[2-ethyl-4-(5-{3-[(isobutyl-methyl-amino)-methyl]-5-isopropyl-phenyl}-[1,2,4]oxadiazol-3-yl)-6-methyl-phenoxy]-2-hydroxy-propyl}-2-hydroxy-acetamide]
20 | 2 | CCN(C)Cc1cc(C)cc(-c2nc(-c3cc(C)c(OC[C@@H](O)CNC(=O)CO)c(C)c3)no2)c1 [Example 147, N—{(S)-3-[4-(5-{3-[(ethyl-methyl-amino)-methyl]-5-methyl-phenyl}-[1,2,4]oxadiazol-3-yl)-2,6-dimethyl-phenoxy]-2-hydroxy-propyl}-2-hydroxy-acetamide]
21 | 1.6 | CCc1cc(-c2nc(-c3cc(C)c(OC[C@@H](O)CNC(=O)CO)c(CC)c3)no2)ccc1CN(C)CC [Example 100, N—{(S)-3-[2-ethyl-4-(5-{3-ethyl-4-[(ethyl-methyl-amino)-methyl]-phenyl}-[1,2,4]oxadiazol-3-yl)-6-methyl-phenoxy]-2-hydroxy-propyl}-2-hydroxy-acetamide]
22 | 1.3 | CCN(C)Cc1cc(C)cc(-c2nc(-c3cc(C)c(OC[C@@H](O)CNC(=O)CO)c(Cl)c3)no2)c1 [Example 148, N—{(S)-3-[2-chloro-4-(5-{3-[(ethyl-methyl-amino)-methyl]-5-methyl-phenyl}-[1,2,4]oxadiazol-3-yl)-6-methyl-phenoxy]-2-hydroxy-propyl}-2-hydroxy-acetamide]

System: circulating lymphocytes
Test: Assessment of in vivo efficacy: circulating lymphocytes after oral administration
Design: species or system normotensive male Wistar rats
Conditions: 3 h after oral administration of 10 mg/kg, male Wistar rats, compared to vehicle-treated group
Experimental: The efficacy of the compounds of formula (I) is assessed by measuring the circulating lymphocytes after oral administration of 3 to 30 mg/kg of a compound of formula (I) to normotensive male Wistar rats. The animals are housed in climate-controlled conditions with a 12 h-light/dark cycle, and have free access to normal rat chow and drinking water.
Blood is collected before and 3, 6 and 24 h after drug administration. Full blood is subjected to hematology using Advia Hematology system (Bayer Diagnostics, Zurich, Switzerland).
All data are presented as mean±SEM. Statistical analyses are performed by analysis of variance (ANOVA) using Statistica (StatSoft) and the Student-Newman-Keuls procedure for multiple comparisons. The null hypothesis is rejected when p<0.05.

Row | Molecule | Lymphocyte counts [%]
23 | CCc1cc(CN(C)CC(C)C)cc(-c2nc(-c3cc(C)c(OC[C@@H](O)CNC(=O)CO)c(CC)c3)no2)c1 [Example 53, N—{(S)-3-[2-ethyl-4-(5-{3-ethyl-5-[(isobutyl-methyl-amino)-methyl]-phenyl}-[1,2,4]oxadiazol-3-yl)-6-methyl-phenoxy]-2-hydroxy-propyl}-2-hydroxy-acetamide] | −61.0
